Measured values taken from US8288371B2, “Ortho pyrrolidine, benzyl-substituted heterocycle CCR1 antagonists for autoimmune diseases and inflammation” (Pharmacopeia, LLC, priority 2007, dated 2012).

target: T1, human CCR1 (Homo sapiens, UniProt P32246); assay: CCR1 binding protocol (SPA, [125I]-MIP-1α displacement); conditions: cell membrane expressing human CCR1, 0.1 nM [125I]-MIP-1α, 4 hours at ambient temperature; read-out: Relative potency (IC50)
T1 sequence (P32246 1-355): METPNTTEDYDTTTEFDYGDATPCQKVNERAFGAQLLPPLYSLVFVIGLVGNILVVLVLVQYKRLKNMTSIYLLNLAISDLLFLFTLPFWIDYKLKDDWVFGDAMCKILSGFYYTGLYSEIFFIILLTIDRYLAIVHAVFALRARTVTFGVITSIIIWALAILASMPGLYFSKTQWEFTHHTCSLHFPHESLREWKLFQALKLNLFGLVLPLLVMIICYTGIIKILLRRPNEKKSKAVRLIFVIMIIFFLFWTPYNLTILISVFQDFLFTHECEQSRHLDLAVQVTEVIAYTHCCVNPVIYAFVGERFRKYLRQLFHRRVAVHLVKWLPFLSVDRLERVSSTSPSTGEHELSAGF
Method: The following protocol was used to test compounds for CCR1 binding. A mixture, including scintillation proximity assay (SPA) beads and cell membrane expressing human CCR1, was prepared in assay buffer (130 mM NaCl+5 mM KCl+1 mM MnCl+50 mM Tris HCl at pH 7.4+0.1% bovine serum albumin (BSA)) at the ratio of 50 μg/ml membrane to 10 mg/ml SPA beads. 10 μl of the mixture was transferred to each well of a 384-well assay plate yielding a final concentration for the membrane and SPA beads of 0.5 μg/well and 100 μg/well, respectively
To generate different concentrations of the test compound, compound stocks were prepared using 10 step ½ log dilutions with a high concentration of 10 mM in DMSO and the lowest concentration being DMSO only without compound. An intermediate 40× dilution was then prepared in the assay buffer. The compound was then transferred at 10 μl/well to the assay plate. 0.5 nM [^125 I]-labeled macrophage inflammatory protein-1α (MIP-1α, an endogenous CCR1 ligand) in the assay buffer was transferred to the assay plate at 5 μl/well, for a final ligand concentration of 0.1 nM. The assay plate was then centrifuged at 2500 rpm for 2 minutes and incubated for 4 hours at ambient temperature, at which time the raw data was recorded using microbeta. The IC50 was then calculated using Graphpad Prism.

| IC50 [nM] | Structure (SMILES) |
| --- | --- |
| 50 to 500 | O=C(Nc1ccc(Cl)cc1F)N1CCC[C@@H]1c1ncnn1Cc1ccc(Cl)cc1 [Compound 68] |
| 50 to 500 | Cn1ncc(-c2ccccc2)c1NC(=O)N1CCC[C@@H]1c1ncnn1Cc1ccc(Cl)cc1 [Compound 69] |
| 50 to 500 | O=C(Nc1ccc(C(F)(F)F)cc1Cl)N1CCC[C@@H]1c1ncnn1Cc1ccc(Cl)cc1 [Compound 70] |
| 50 to 500 | O=C(Nc1ccc2nonc2c1)N1CCC[C@@H]1c1ncnn1Cc1ccc(Cl)cc1 [Compound 71] |
| 50 to 500 | N#Cc1ccc2c(c1)OCCC2NC(=O)N1CCC[C@@H]1c1ncnn1Cc1ccc(Cl)cc1 (stereo partly shown) [Compound 72] |
| 50 to 500 | O=C(Nc1ccc(SC(F)(F)F)cc1)N1CCC[C@@H]1c1ncnn1Cc1ccc(Cl)cc1 [Compound 74] |
| 50 to 500 | CC(C)Cc1ccc([C@H](C)NC(=O)N2CCC[C@@H]2c2ncnn2Cc2ccc(Cl)cc2)cc1 [Compound 75] |
| 50 to 500 | CS(=O)(=O)c1ccc(NC(=O)N2CCC[C@@H]2c2ncnn2Cc2ccc(Cl)cc2)cc1 [Compound 76] |
| 50 to 500 | CC1(C)CC[C@@H](NC(=O)N2CCC[C@@H]2c2ncnn2Cc2ccc(Cl)cc2)c2ccccc21 [Compound 77] |
| 500 to 5000 | O=C(NC1CCS(=O)(=O)c2ccccc21)N1CCC[C@@H]1c1ncnn1Cc1ccc(Cl)cc1 (stereo partly shown) [Compound 78] |
| 500 to 5000 | CC1(C)CC[C@H](NC(=O)N2CCC[C@@H]2c2ncnn2Cc2ccc(Cl)cc2)c2ccccc21 [Compound 79] |
| < 50 | CC[C@H](NC(=O)N1CCC[C@@H]1c1ncnn1Cc1ccc(Cl)cc1)c1cc2ccccc2o1 [Compound 80] |
| < 50 | C[C@H](NC(=O)N1CCC[C@@H]1c1ncnn1Cc1ccc(Cl)cc1)c1cc2ccccc2o1 [Compound 81] |
| < 50 | O=C(N[C@H]1CCCc2cc(C(F)(F)F)ccc21)N1CCC[C@@H]1c1ncnn1Cc1ccc(Cl)cc1 [Compound 82] |
| 50 to 500 | Cc1nc(-c2ccccc2)sc1NC(=O)N1CCC[C@@H]1c1ncnn1Cc1ccc(Cl)cc1 [Compound 83] |
| 50 to 500 | O=C(NC1CCCOc2ccc(Cl)cc21)N1CCC[C@@H]1c1ncnn1Cc1ccc(Cl)cc1 (stereo partly shown) [Compound 84] |
| 50 to 500 | CC1(C)CC(NC(=O)N2CCC[C@@H]2c2ncnn2Cc2ccc(Cl)cc2)c2ccccc2O1 (stereo partly shown) [Compound 85] |
| 50 to 500 | O=C(NC1CCc2cc(C(F)(F)F)ccc21)N1CCC[C@@H]1c1ncnn1Cc1ccc(Cl)cc1 (stereo partly shown) [Compound 86] |
| 50 to 500 | O=C(NC1CCCOc2cccc(Cl)c21)N1CCC[C@@H]1c1ncnn1Cc1ccc(Cl)cc1 (stereo partly shown) [Compound 87] |
| 500 to 5000 | O=C(NC1CCCOc2cc(Cl)ccc21)N1CCC[C@@H]1c1ncnn1Cc1ccc(Cl)cc1 (stereo partly shown) [Compound 88] |
| < 50 | O=C(NC1CCCOc2ccccc21)N1CCC[C@@H]1c1ncnn1Cc1ccc(Cl)cc1 (stereo partly shown) [Compound 89] |
| 50 to 500 | CC[C@H](NC(=O)N1CCC[C@@H]1c1ncnn1Cc1ccc(Cl)cc1)c1c(C)cc(C(F)(F)F)cc1C [Compound 90] |

| IC50 [nM] | Structure (SMILES) |
| --- | --- |
| 50 to 500 | O=C(Nc1ccc2occc2c1)N1CCC[C@@H]1c1ncnn1Cc1ccc(Cl)cc1 [Compound 91] |
| 500 to 5000 | Cc1nc([C@H]2CCCN2C(=O)Nc2ccc(C(F)(F)F)cc2)n(Cc2ccc(Cl)cc2)n1 [Compound 92] |
| 50 to 500 | O=C(N[C@H]1CCCOc2ccc(Cl)cc21)N1CCC[C@@H]1c1ncnn1Cc1ccc(Cl)cc1 [Compound 93] |
| 50 to 500 | Cc1nc([C@H]2CCCN2C(=O)Nc2c(C)cc(C(F)(F)F)cc2C)n(Cc2ccc(Cl)cc2)n1 [Compound 94] |
| 50 to 500 | CC[C@H](NC(=O)N1CCC[C@@H]1c1nc(C)nn1Cc1ccc(Cl)cc1)c1cc2ccccc2o1 [Compound 95] |
| 500 to 5000 | Cc1nc([C@H]2CCCN2C(=O)N[C@H]2CCOc3cc(C(F)(F)F)ccc32)n(Cc2ccc(Cl)cc2)n1 [Compound 96] |
| 500 to 5000 | CC[C@H](NC(=O)N1CCC[C@@H]1c1nc(C)nn1Cc1ccc(Cl)cc1)c1c(C)cc(C(F)(F)F)cc1C [Compound 97] |
| 50 to 500 | O=C(NC1(c2ccc(C(F)(F)F)cc2)CC1)N1CCC[C@@H]1c1ncnn1Cc1ccc(Cl)cc1 [Compound 98] |
| 50 to 500 | CN1C(=O)COc2ccc(NC(=O)N3CCC[C@@H]3c3ncnn3Cc3ccc(Cl)cc3)cc21 [Compound 99] |
| 500 to 5000 | O=C(NC1(c2ccccc2)CC1)N1CCC[C@@H]1c1ncnn1Cc1ccc(Cl)cc1 [Compound 100] |
| < 50 | Cc1cc(C(F)(F)F)cc(C)c1NC(=O)N1CCC[C@@H]1c1nncn1Cc1ccc(Cl)cc1 [Compound 101] |
| < 50 | Cc1cc(C(F)(F)F)cc(C)c1NC(=O)N1CCC[C@@H]1c1nnc(C)n1Cc1ccc(Cl)cc1 [Compound 102] |
| < 50 | O=C(N[C@H]1CCc2ccccc2C1)N1CCC[C@@H]1c1nncn1Cc1ccc(Cl)cc1 [Compound 103] |
| < 50 | Cc1cc(C(F)(F)F)ccc1NC(=O)N1CCC[C@@H]1c1nncn1Cc1ccc(Cl)cc1 [Compound 104] |
| < 50 | Cc1noc(-c2ccccc2)c1NC(=O)N1CCC[C@@H]1c1nncn1Cc1ccc(Cl)cc1 [Compound 105] |
| < 50 | Cc1cc(Cl)cc(C)c1NC(=O)N1CCC[C@@H]1c1nncn1Cc1ccc(Cl)cc1 [Compound 106] |
| < 50 | O=C(N[C@H]1CCOc2cc(C(F)(F)F)ccc21)N1CCC[C@@H]1c1nncn1Cc1ccc(Cl)cc1 [Compound 107] |
| < 50 | O=C(Nc1ccc(C(F)(F)F)cc1)N1CCC[C@@H]1c1nncn1Cc1ccc(Cl)cc1 [Compound 108] |
| < 50 | Cc1onc(-c2ccccc2)c1NC(=O)N1CCC[C@@H]1c1nncn1Cc1ccc(Cl)cc1 [Compound 109] |
| < 50 | O=C(NC1CCS(=O)(=O)c2ccccc21)N1CCC[C@@H]1c1nncn1Cc1ccc(Cl)cc1 (stereo partly shown) [Compound 110] |
| < 50 | Cc1nnc([C@H]2CCCN2C(=O)N[C@H]2CCOc3cc(C(F)(F)F)ccc32)n1Cc1ccc(Cl)cc1 [Compound 111] |
| 50 to 500 | Cc1nnc([C@H]2CCCN2C(=O)Nc2ccc(C(F)(F)F)cc2)n1Cc1ccc(Cl)cc1 [Compound 112] |

| IC50 [nM] | Structure (SMILES) |
| --- | --- |
| < 50 | Cc1nnc([C@H]2CCCN2C(=O)N[C@H]2CCOc3cc(Cl)ccc32)n1Cc1ccc(Cl)cc1 [Compound 113] |
| < 50 | O=C(N[C@H]1CCOc2cc(Cl)ccc21)N1CCC[C@@H]1c1nncn1Cc1ccc(Cl)cc1 [Compound 114] |
| < 50 | Cc1cc(Cl)cc(C)c1NC(=O)N1CCC[C@@H]1c1nnc(C)n1Cc1ccc(Cl)cc1 [Compound 115] |
| < 50 | CC[C@H](NC(=O)N1CCC[C@@H]1c1nncn1Cc1ccc(Cl)cc1)c1cc2ccccc2o1 [Compound 116] |
| < 50 | CC[C@H](NC(=O)N1CCC[C@@H]1c1nnc(C)n1Cc1ccc(Cl)cc1)c1cc2ccccc2o1 [Compound 117] |
| 50 to 500 | Cc1cc(C(F)(F)F)cc(C)c1NC(=O)N1CCC[C@@H]1c1nnc(C(C)C)n1Cc1ccc(Cl)cc1 [Compound 118] |
| < 50 | CC[C@H](NC(=O)N1CCC[C@@H]1c1nnc(C)n1Cc1ccc(Cl)cc1)c1c(C)cc(C(F)(F)F)cc1C [Compound 119] |
| < 50 | CC[C@H](NC(=O)N1CCC[C@@H]1c1nncn1Cc1ccc(Cl)cc1)c1c(C)cc(C(F)(F)F)cc1C [Compound 120] |
| 50 to 500 | O=C(Nc1ccc2occc2c1)N1CCC[C@@H]1c1nncn1Cc1ccc(Cl)cc1 [Compound 121] |
| 50 to 500 | Cc1nnc([C@H]2CCCN2C(=O)Nc2ccc3occc3c2)n1Cc1ccc(Cl)cc1 [Compound 122] |
| < 50 | Cc1noc(-c2ccccc2)c1NC(=O)N1CCC[C@@H]1c1nnc(C)n1Cc1ccc(Cl)cc1 [Compound 123] |
| < 50 | Cc1nnc([C@H]2CCCN2C(=O)N[C@@H](C)c2cccnc2)n1Cc1ccc(Cl)cc1 [Compound 124] |
| < 50 | CC[C@H](NC(=O)N1CCC[C@@H]1c1nnc(C)n1Cc1ccc(Cl)cc1)c1ccc(C(F)(F)F)cc1 [Compound 125] |
| < 50 | Cc1onc(-c2ccccc2)c1NC(=O)N1CCC[C@@H]1c1nnc(C)n1Cc1ccc(Cl)cc1 [Compound 126] |
| < 50 | Cc1nnc([C@H]2CCCN2C(=O)N[C@H]2CCc3cc(Cl)ccc32)n1Cc1ccc(Cl)cc1 [Compound 127] |
| < 50 | Cc1nnc([C@H]2CCCN2C(=O)NC(c2ccccc2)c2ccccc2)n1Cc1ccc(Cl)cc1 [Compound 128] |
| < 50 | Cc1nnc([C@H]2CCCN2C(=O)NC(c2ccccc2)c2ccc(Cl)cc2)n1Cc1ccc(Cl)cc1 (stereo partly shown) [Compound 129] |
| < 50 | Cc1nnc([C@H]2CCCN2C(=O)NCc2ccc(C(F)(F)F)cc2)n1Cc1ccc(Cl)cc1 [Compound 130] |
| < 50 | Cc1nnc([C@H]2CCCN2C(=O)N[C@@H](C)c2ccc3ccccc3c2)n1Cc1ccc(Cl)cc1 [Compound 131] |
| < 50 | Cc1nnc([C@H]2CCCN2C(=O)NC2CCc3cc(Cl)ccc32)n1Cc1ccc(Cl)cc1 (stereo partly shown) [Compound 132] |
